In patent US11058699B2, “Method and compositions for inhibition of double stranded DNA viruses” (WISCONSIN ALUMNI RESEARCH FOUNDATION, priority 2008, dated 2021):
“Also recorded” adds a separate entry of the source.

Key:
β-actin expression = assay: Cellular β-actin expression by qRT-PCR in 293T cells; assay type: cell-based, human; conditions: 3 μM, 48 hours
[1] = test system: HPV pseudovirions hpvSEAP; assay: hpvSEAP pseudovirion infectivity assay (SEAP) in 293T cells; assay type: cell-based, HPV16
Method: FIG. 6. Early M phase arrest by CDK1 inhibition interferes with HPV infection. (FIG. 6A) 293T cells were treated with a CDK1 inhibitor, purvalanol A (3, 6, and 12 μM) and infected with hpvSEAP. […] The columns represent the mean, the bars represent the standard deviation. (FIG. 6B) Cell cycle arrest at M phase by purvalanol A (12 μM) is shown. Histograms indicate the cell cycle status of DMSO and purvalanol A-treated cells, respectively.
Cell cycle inhibitors block HPV infection. To identify mechanistic pathways and informative modulators of HPV infection, we tested nearly 5,000 compounds in known bioactive molecule libraries Prestwick (Prestwick Chemicals) and LOPAC (Library of Pharmacologically Active Compounds, Sigma), with HPV pseudovirions containing an SV40 promoter-driven secreted alkaline phosphatase (SEAP) reporter gene (hpvSEAP). […] Total RNA was extracted after 48 hours, and expression levels of HPV16 E1 ^E4 RNA transcripts were measured by qRT-PCR using E7, E2, and E5 sequence specific primers.
High throughput screening.
Infectivity assay. […] Infectivity of wild type HPV16 virions was examined by quantitative reverse transcriptase PCR (qRT-PCR) by amplifying viral mRNA signals from HPV16-treated 293TT cells. 293TT cells were infected with 50-100 vge/cell of packaged virus and incubated for 48 hours at 37° C.

[2] = test system: influenza virus vector expressing RL; assay type: cell-based
hpv16wpA-RL = assay type: cell-based, HPV16; conditions: 293T cells, 24 hour synchronization with aphidicolin, 4 hour treatment 3 μM, 48 hours
wild type HPV16 = assay: Wild type HPV16 infection of 293T cells, early gene expression by qRT-PCR; assay type: cell-based; conditions: 4 hours pre-treatment with 3 μM, 48 hours, compared with neutralizing antibody H16.7E
HaCaT cells = assay: CellTiter-Glo Luminescent cell viability assay in HaCaT cells; conditions: 3 μM, 48 hours
Method: The reporter RL activity (FIG. 1A) and cell viability (FIG. 1B) were measured by Renilla Luciferase Assay System (Promega) and CellTiter-Glo Luminescent cell viability assay (Promega), respectively. Human keratinocyte HaCaT cells were inoculated with HPV16 LCR-driven RL containing pseudovirions hpv16wpA-RL after 4 hours of pre-treatment with 3 μM of each compound, and reporter expression/cell viability were scored 48 hours later. The expression value is shown as viability to untreated cells with hpv16wpA-RL.

[3] = 293 cells, HPV16 pseudoviruses expressing SEAP or Renilla luciferase, or intact infectious HPV16 (early gene expression)

Row | SMILES | cellular β-actin expression (β-actin expression) | inhibition of HPV infection [1, 3] | inhibition of HPV infection ([1]; 293 cells, HPV16 pseudoviruses expressing SEAP or Renilla luciferase, or intact infectious HPV16 (early gene expression), listed as etopside) | influenza infection (RL activity) [2] | HPV infection (RL activity) (hpv16wpA-RL) | HPV16 gene expression (wild type HPV16 virion infection) (wild type HPV16) | effect on cell viability (HaCaT cells) | inhibition of HPV infection ([1]; 293T cells, 12 μM, hpvSEAP, 48 hours) | inhibition of HPV infection, dose dependence ([1]; 293T cells, 3, 6 and 12 μM, SEAP after 48 hours)
1 | COc1cc([C@@H]2c3cc4c(cc3[C@@H](O[C@@H]3O[C@@H]5CO[C@@H](C)O[C@H]5[C@H](O)[C@H]3O)[C@H]3COC(=O)[C@H]23)OCO4)cc(OC)c1O [etoposide] | no effect; also recorded: not affected | most significant and consistent inhibition | significantly and consistently inhibit | did not significantly affect | efficiently blocked | blocked HPV16 gene expression even more efficiently than a neutralizing antibody |  |  | 
2 | O=c1[nH]cc(F)c(=O)[nH]1 [5-fluorouracil] |  |  |  |  |  |  | did not have any effect |  | 
3 | CC(C)[C@H](CO)Nc1nc(Nc2cccc(Cl)c2)c2ncn(C(C)C)c2n1 [Purvalanol A, purvalanol A] |  |  |  |  |  |  |  | about 5 fold | inhibited HPV infection dose-specifically
4 | C[C@@]1(CO)[C@H](O)CC[C@@]2(C)[C@H]1CC[C@H]1C[C@@H]3C[C@@]12CC[C@]3(O)CO [aphidicolin] | no effect; also recorded: not affected | significantly and consistently inhibit; also recorded: most significant and consistent inhibition |  | did not significantly affect | efficiently blocked | blocked HPV16 gene expression even more efficiently than a neutralizing antibody |  |  | 
